{"source": "patent US20010000731A1", "about": "“Method for the prevention and treatment of chronic venous insufficiency” (priority 1999, published 2001)"}
{"system": "swelling of the recto-anus induced by croton oil", "experiment": "Croton oil-induced hemorrhoid model in rats (recto-anus coefficient, RAC)", "format": "in vivo, rat", "conditions": "male SD rats; pure alkaloid oral 1 mg/kg; RAC determined 24 hours after induction; FIG. 3", "procedure": "Male SD rats (6 weeks old, approximately 140 g) were purchased from Harlan Sprague Dawley and allowed to acclimate for 1 week. The rats were maintained in a pathogen-free facility in accordance with the National Research Council of Laboratory Animal care and use guidelines. Each experiment was preformed with age-matched rats 7- 8 weeks old. The croton oil-induced hemorrhoid model in rats was performed according to the method published by Nishiki (Nishiki et al. (1988) Folia Pharmacology Japan 92:215- 225; Nishiki et al. (1988) Folia Pharmacol. Japan 92:227-240). Briefly, a cotton swab with a diameter of 4 mm soaked with 0.16 mL of inducer (deionized water: pyridine : ethyl ether: 6% croton oil/ethyl ether (1:4:5:10) was applied to the rat's anus for 12 seconds. The final concentration of croton oil was 3%. The edema developed linearly until 7-8 hours after application and the severity of the edema was sustained for more than 24 hours. Twenty-four hours later, recto-anus tissue (approx. 10 mm long) was isolated after the rats were euthanized. The weights of rat body and recto-anus were measured. The recto-anus coefficient (RAC) was calculated using the formula: weight of recto-anus (mg)/body weight (g).\nThe average RAC of croton oil-treated rats was 2.10, which was 38.2% higher than that the rats treated with vehicle only (RAC=1.52). Vehicle alone did cause significant swelling of the recto-anus as compared with the rats without any treatment (RAC=0.98). Twenty-four hours after hemorrhoid induction with croton oil followed by treatment orally with prickly ash extract at either 6 mg/kg or 30 mg/kg and by treatment topically with prickly ash extract at 6 mg/mL in 1:1 aquaphor, the RAC of rats was determined.\nThis experiment was performed as described in Example 5. […] Twenty-four hours after hemorrhoid induction with croton oil followed by treatment orally with the pure alkaloids isolated from prickly ash extract at 1 mg/kg, the RAC of rats was determined. […]"}
{"compound": "COc1cc2c(cc1O)C[C@H]1c3c(cc(OC)c(O)c3-2)CC[N+]1(C)C", "note": "[Laurifoline]", "inhibition of the swelling of the recto-anus induced by croton oil (RAC)": "partially reduced"}
{"compound": "COc1ccc2c(c1O)-c1c(O)c(OC)cc3c1[C@H](C2)[N+](C)(C)CC3", "note": "[Magnoflorine]", "inhibition of the swelling of the recto-anus induced by croton oil (RAC)": "completely inhibited"}
{"compound": "Chelerythrine", "inhibition of the swelling of the recto-anus induced by croton oil (RAC)": "partially reduced"}
